Series [1] relates to Plasmodium falciparum in human red blood cells. To be noted: 24-hour period, relative to untreated infected red blood cells.
A short description of series [2]: EL-4 cytotoxicity by chromium release. As to conditions: for cytotoxicity at 30 min, 100 μM: mouse, EL-4 cells. Type of series: cell-based. Here is the method:
(§1) The EL-4 cells were then incubated for 30 minutes in the presence of various peptides at different concentrations. Cytotoxicity was taken as a percentage of chromium released (measured in the culture supernatant) relative to the chromium released by EL-4 cells lysed by detergent.
(§2) Similar chromium release data were obtained using the same procedure with a 100 μM concentration of peptide, but with EL-4 cell concentrations of 2×10^6, 10^6, and 5×10^5 cells in 0.5 ml medium.
(§3) The chromium release data was also obtained by using the supernatant from unlabeled EL-4 cells cultured for 30 minutes in the presence of 100 μM peptide as medium for […] EL-4 cultured as described above. The percent cytotoxicity calculated as described above was 20.16 for cecropin SB-37, 19.73 for *cecropin SB-37, 41.96 for Shiva 1, and 106.67 for melittin.

Another series has as its system EL-4 cells. The experiment in a line: EL-4 cytotoxicity by chromium release. In kind it is cell-based. To be noted: 30 minutes, 10^6 EL-4 cells. The procedure: as §1, §2, §3
In another series the test system is mammary carcinoma. The experiment in a line: In vivo effect on murine mammary carcinoma. Also noted: species or system BALB/c mouse. As to conditions: 1.76 mg (88 mg/kg) daily, three days, injected directly into the carcinoma. The procedure: One BALB/c mouse was given daily injections of 1.76 mg (88 mg/kg) Shiva 1 in PBS for three consecutive days as described in the foregoing examples.

The nature of series [3]: EL-4 cell viability by trypan blue exclusion. Type of series: cell-based. To be noted: one hour, 95% at 0 μM. The procedure: EL-4 lymphoma cells were suspended in RPMI 1640 at 5,000,000/ml with 500,000 cells per well. Various concentrations of cecropin SB-37 and Shiva 1 were added and the wells incubated at 37° C. in a 5% CO2 atmosphere for one hour. Viability was determined by microscopic observation for trypan blue exclusion.

In series [4] the test system is T. cruzi intracellular amastigotes in Vero cells. Nature of the series: In vitro effect on T. cruzi intracellular amastigotes in Vero cells. To be noted: one hour period, relative to no peptide. In kind it is cell-based, Trypanosoma cruzi. The procedure:
Vero cells at 10^5 cells/ml in MEM-FBS were mixed with Trypanosoma Cruzi in the trypomastigote stage at 10^5 cells/ml in the same medium at a 1:1 ratio of Vero cells to trypomastigotes. The mixture of Vero cells and trypomastigotes was cultured at 37° C. in a 5% CO2 atmosphere in microscope slide chambers. At 24 hours, cecropin SB-37 was added to the chambers, except for a set of controls, at a final concentration of 100 μM. […]

The nature of series [5]: S. intermedius 19930 viability in lytic peptide/lysozyme. To be noted: Viability (%), lysozyme at ten times.
The next series concerns Brucella abortus. Type of series: in vivo, BALB/C mice. To be noted: 0.176 mg/day for 4 days from day 12 post infection; sacrificed day 16; control 8.15 × 10^3.
The subject of series [6] is Erwinia caratovora subsp. carotova. Nature of the series: Plant pathogen LD50 in cecropin SB-37/lysozyme. As to conditions: incubation at 30° C. In kind it is cell-based.
In series [7] the test system is Xanthomonas campestris pv. campestris. Nature of the series: Plant pathogen LD50 in cecropin SB-37/lysozyme. In kind it is cell-based. As to conditions: incubation at 30° C.
Series [8] has as its system Pseudomonas syringae pv. tabaci. Nature of the series: Plant pathogen LD50 in cecropin SB-37/lysozyme. Type of series: cell-based. To be noted: incubation at 30° C.
The subject of another series is eucaryotes. The experiment in a line: Lytic activity, general statements of the description. To be noted: general statement, no test described.
The subject of another series is Saccharomyces cerevisiae. Nature of the series: Effect of lytic peptides on S. cerevisiae (plate count). As to conditions: 1 hour at 37° C., PBS pH 6.8, 500 at 0 μM.
[9] abbreviates: 100 μM, 2 × 10^6 cells per 0.5 ml, read-out: Percent Cytotoxicity.
[10] abbreviates: supernatant from unlabeled EL-4 cells cultured 30 minutes with 100 μM peptide used as medium for labeled EL-4, read-out: percent cytotoxicity.

Like-named read-outs stand apart in the source and are kept apart here. Residues, ends and D or L forms follow the SMILES beside them.

The text below walks through data of US6440935B1, “Inhibition of eucaryotic pathogens and neoplasms and stimulation of fibroblasts and lymphocytes with lytic peptides” (priority 1987, dated 2002).

One may read the viability as the share of living cells, or the viability signal relative to a control. Regarding `CC[C@H](C)[C@H](NC(=O)CNC(=O)[C@H](CCC(N)=O)NC(=O)[C@H](CCCCN)NC(=O)[C@@H](NC(=O)[C@H](CCC(N)=O)NC(=O)[C@H](CCCCN)NC(=O)CNC(=O)[C@@H](NC(=O)[C@H](CCCNC(=N)N)NC(=O)[C@H](CC(=O)O)NC(=O)[C@@H](NC(=O)[C@H](CCCNC(=N)N)NC(=O)[C@H](CCCNC(=N)N)NC(=O)[C@H](Cc1ccccc1)NC(=O)[C@H](CC(C)C)NC(=O)[C@H](CCCNC(=N)N)NC(=O)[C@H](Cc1c[nH]c2ccccc12)NC(=O)[C@H](CCCNC(=N)N)NC(=O)[C@@H]1CCCN1C(=O)[C@@H](N)CCSC)[C@@H](C)CC)C(C)C)[C@@H](C)CC)C(=O)N[C@@H](CC(C)C)C(=O)N[C@@H](CCCNC(=N)N)C(=O)N[C@@H](C)C(=O)NCC(=O)N1CCC[C@H]1C(=O)N[C@@H](C)C(=O)N[C@H](C(=O)N[C@@H](C)C(=O)N[C@@H](CC(C)C)C(=O)N[C@H](C(=O)NCC(=O)N[C@@H](CC(=O)O)C(=O)N[C@@H](C)C(=O)N[C@@H](CCCNC(=N)N)C(=O)N[C@@H](C)C(=O)N[C@H](C(=O)NCC(N)=O)C(C)C)C(C)C)[C@@H](C)CC` [Shiva 1] (H-MPRWRLFRRIDRVGKQIKQGILRAGPAIALVGDARAVG-NH2), the viability is 0%, the viability at 0.01 µM was 100%, the viability at 0.1 µM came out at 69.6% and the viability at 1 µM was determined as 37.9%. The compound also came in with a viability at 5 µM of 1.5% and a viability at 7.5 µM of 0.1%. In addition, the “LD50 (concentration for 50% reduction in 3H-hypoxanthine uptake)” value in series [1] is “about 10 μM”. Further, in series [2] (setting [9]), the cytotoxicity at 100 µM came out at 84.9%. Besides, the cytotoxicity at 100 µM in [2] (100 μM, 5 × 10^5 cells per 0.5 ml, read-out: Percent Cytotoxicity) was determined as 98.7%. Also, the cytotoxicity at 100 µM in series [2] (100 μM, 10^6 cells per 0.5 ml, read-out: Percent Cytotoxicity) was 89.2%. Besides, in series [2] (setting [10]), the cytotoxicity is 42%. Further, in the series on EL-4 cells (10 μM), the “Percent Cytotoxicity (chromium release vs detergent-lysed cells)” value (“Percent Cytotoxicity” for short) came out at 0.37%. Besides, the “Percent Cytotoxicity” value in the series with EL-4 cells (25 μM) stood at 16.7%. In addition, the “Percent Cytotoxicity” value with EL-4 cells (50 μM) turned out to be 42.73%. The “Percent Cytotoxicity” value with EL-4 cells (100 μM) is on record as 82.35%. Besides, in the series with mammary carcinoma, the “immediate cause of death at autopsy” value was “shock”. For the same compound, the “outcome following the third injection” value with mammary carcinoma (one mouse) is on record as “died almost immediately”. Also, the viability in [3] (10 μM) came to 85%. Besides, the viability in series [3] (25 μM) is 60%. Moreover, in series [3] (50 μM), the viability was determined as 50%. Also, in series [3] (100 μM), the viability was found to be 10%. Besides, the “LD50 (concentration for 50% reduction in number of infected Vero cells)” value in series [4] is listed as “about 9 μM”. In series [5] (peptide concentration 0.01 μM), the viability at 0.01 µM amounted to 100%. The compound also gave a viability at 0.1 µM in [5] (peptide concentration 0.1 μM) of 81.8%. Moreover, in series [5] (peptide concentration 0.5 μM), the viability at 0.5 µM is 65%. In addition, the viability at 1 µM in [5] (peptide concentration 1.0 μM) came to 42.1%. The viability at 5 µM in [5] (peptide concentration 5.0 μM) amounted to 35.2%. Also, the viability in series [5] (peptide concentration 10. μM) was 1.2%. The compound also had a viability in series [5] (peptide concentration 50. μM) of 0%.
With `CN(C)[C@@H]1C(O)=C(C(N)=O)C(=O)[C@@]2(O)C(O)=C3C(=O)c4c(O)cccc4[C@@](C)(O)[C@H]3C[C@@H]12` [Tetracycline, tetracycline], the “Concentration of Brucella abortus in spleen tissue” value in the series on Brucella abortus is recorded as 4.4 × 10^3 Number per gram of spleen.
As for Lysozyme, the LD50 (in the series on Pseudomonas solanacearum; in series [6]; in series [7]; in series [8]) was over 1000 µM in each case. Also, the “Viability (%)” value turned out to be 100% with S. intermedius 19930 (0.01 µM); 100% in the series with S. intermedius 19930 (0.1 µM); 81.3% in the series with S. intermedius 19930 (0.5 µM); 53% with S. intermedius 19930 (1 µM); 49.5% in the series on S. intermedius 19930 (5 µM); 0.4% in the series on Pseudomonas aeruginosa. Moreover, the “Viability (%)” value was 100% in the series with Pseudomonas aeruginosa (0.01 µM); 82.2% with Pseudomonas aeruginosa (0.1 µM); 52.1% in the series on Pseudomonas aeruginosa (1 µM); 7.9% in the series with Pseudomonas aeruginosa (5 µM); 0.6% in the series with Pseudomonas aeruginosa (7.5 µM).
On to cecropin A, for which, in the series with eucaryotes, the “lytic activity compared with other lytic peptides” value was “about as lytically active as cecropin B and SB-37”.
For the compound `CC[C@H](C)[C@H](NC(=O)CN)C(=O)NCC(=O)N[C@@H](C)C(=O)N[C@H](C(=O)N[C@@H](CC(C)C)C(=O)N[C@@H](CCCCN)C(=O)N[C@H](C(=O)N[C@@H](CC(C)C)C(=O)N[C@H](C(=O)N[C@H](C(=O)NCC(=O)N[C@@H](CC(C)C)C(=O)N1CCC[C@H]1C(=O)N[C@@H](C)C(=O)N[C@@H](CC(C)C)C(=O)N[C@H](C(=O)N[C@@H](CO)C(=O)N[C@@H](Cc1c[nH]c2ccccc12)C(=O)N[C@H](C(=O)N[C@@H](CCCCN)C(=O)N[C@@H](CCCNC(=N)N)C(=O)N[C@@H](CCCCN)C(=O)N[C@@H](CCCNC(=N)N)C(=O)N[C@@H](CCC(N)=O)C(=O)N[C@@H](CCC(N)=O)C(N)=O)[C@@H](C)CC)[C@@H](C)CC)[C@@H](C)O)[C@@H](C)O)C(C)C)C(C)C` [Melittin, reference compound], the cytotoxicity at 30 min, 100 μM in series [2] (setting [9]) turned out to be 105%; in series [2] (setting [10]), 107%. Moreover, the “Percent Cytotoxicity” value amounted to 109.65% in the series with EL-4 cells (10 μM), 106.65% with EL-4 cells (25 μM), 106.81% in the series on EL-4 cells (50 μM) and 102.43% in the series on EL-4 cells (100 μM). Further, the “Plate Count (Thousands)” value is given as 260 Thousands with Saccharomyces cerevisiae (5 μM) and 0 Thousands with Saccharomyces cerevisiae (50 μM).
